Assay results as given in patent publication US11787762B2, “Tetralin and tetrahydroquinoline compounds as inhibitors of HIF-2alpha” (ARCUS BIOSCIENCES, INC., priority 2020, dated 2023).

The molecules below were run against T1, HIF-2α (Homo sapiens, UniProt Q99814) (assay: HIF-2α luciferase reporter assay in HIF-Luc-786-O cells). Conditions: Table 3, 20 hours incubation.
T1 construct: host or cells: 786-O cells stably transduced with Cignal Lenti HIF Luc Reporter (only the reporter was introduced, not HIF-2α)
T1 sequence (Q99814 whole entry): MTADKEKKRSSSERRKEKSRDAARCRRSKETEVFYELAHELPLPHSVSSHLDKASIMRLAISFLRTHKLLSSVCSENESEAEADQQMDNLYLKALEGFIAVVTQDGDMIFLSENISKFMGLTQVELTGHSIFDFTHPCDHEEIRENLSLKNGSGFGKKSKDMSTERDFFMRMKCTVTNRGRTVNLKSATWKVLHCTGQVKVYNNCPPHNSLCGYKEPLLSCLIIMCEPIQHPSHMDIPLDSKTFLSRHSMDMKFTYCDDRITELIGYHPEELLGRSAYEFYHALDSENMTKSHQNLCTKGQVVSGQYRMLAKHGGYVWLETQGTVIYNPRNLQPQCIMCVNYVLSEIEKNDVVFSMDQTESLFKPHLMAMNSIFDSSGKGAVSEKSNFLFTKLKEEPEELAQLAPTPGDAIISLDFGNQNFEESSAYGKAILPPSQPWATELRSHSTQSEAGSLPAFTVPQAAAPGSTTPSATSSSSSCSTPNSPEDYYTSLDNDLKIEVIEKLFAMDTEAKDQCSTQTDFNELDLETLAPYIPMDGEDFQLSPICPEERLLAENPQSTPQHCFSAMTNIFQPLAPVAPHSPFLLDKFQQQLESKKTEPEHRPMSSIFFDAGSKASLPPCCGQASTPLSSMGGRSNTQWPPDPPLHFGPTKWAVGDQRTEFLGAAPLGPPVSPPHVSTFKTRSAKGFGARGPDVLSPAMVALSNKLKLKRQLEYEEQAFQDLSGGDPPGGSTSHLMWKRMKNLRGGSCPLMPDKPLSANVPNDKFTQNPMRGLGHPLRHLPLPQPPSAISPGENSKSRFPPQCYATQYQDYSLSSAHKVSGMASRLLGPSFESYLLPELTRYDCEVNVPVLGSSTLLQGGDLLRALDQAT
Type: cell-based
Protocol: Generation of HIF-2α Luciferase 786-O Cell Line:
Stable cell lines were generated by transducing 786-O cells (ATCC, CRL-1932) with Cignal Lenti HIF Luc Reporter lentivirus (CLS-007 L, Qiagen) according to the manufacturer's guidelines. In brief, 0.3×10^6 786-0 cells were transduced with lentivirus at a Multiplicity of Infection (MOI) of 25 for 24 hours. After transduction, cells were replenished with fresh RPMI 1640 Medium (Cat. No. 11875085, Thermo Fisher,) supplemented with 10% FBS (Cat. No. A3160502, Gibco), 2 mM GlutaMax (Cat. No. 35050-061, Invitrogen) and 100 units of penicillin and 100 μg of streptomycin/mL (Cat. No 15070063, Thermo Fisher) for another 24 hours. Antibiotic selection was performed in cell media containing 4 μg/mL of Puromycin. After 7 days of antibiotic selection, stable pools of surviving cells were expanded and used in a luciferase reporter assay.
HIF-2α Luciferase Reporter Assay:
On day one, 20 uL of HIF-Luc-786-0 cells in OptiMem (Cat. No. 31985088, Thermo Fisher) were seeded into each well of a 384 well white opaque plate (Corning 3570) and incubated at 37° C. and 5% CO2. Twenty microliters of 2× test compounds in OptiMem were added to cells after 4 hours of incubation. Final assay conditions comprised 20,000 cells per well in 1% DMSO with test compound concentrations ranging from 50 uM to 0 uM. After 20 hours incubation at 37° C. and 5% CO2, luciferase activity was determined using ONE-Glo Luciferase Assay Reagent (E6110, Promega) following the manufacture's recommended procedure. Briefly, 40 uL of ONE-Glo luciferase reagents were added to each well and luciferase signals were measured using an Envision 2102 Multilabel Reader. Percentage maximum activity in each test well was calculated based on DMSO (maximum activity) and no cell control wells (baseline activity). The IC50 values of the test compounds were determined from compound dose response curves fitted using a standard four parameter fit equation.
`N#Cc1cc(F)cc2c1[C@@H](c1ccc(C(=O)O)c3c1CC(F)(F)[C@H]3O)CC[C@@H]2F` [Example 223, (3S)-7-[(1R,4S)-8-cyano-4,6-difluoro-1,2,3,4-tetrahydronaphthalen-1-yl]-2,2-difluoro-3-hydroxy-1,3-dihydroindene-4-carboxylic acid] was tested, and the IC50 was 100 to 1000 nM.
In the case of `N#Cc1cc(F)cc2c1[C@@H](c1ccc(-c3cccn4ccnc34)c3c1CC(F)(F)[C@H]3O)CC[C@@H]2F` [Example 245, (5S,8R)-8-[(1S)-2,2-difluoro-1-hydroxy-7-{imidazo[1,2-a]pyridin-8-yl}-2,3-dihydro-1H-inden-4-yl]-3,5-difluoro-5,6,7,8-tetrahydronaphthalene-1-carbonitrile], the IC50 is reported as 100 to 1000 nM.
In the case of `Cn1nccc1-c1ccc([C@H]2C[C@H](F)[C@H](F)c3cc(F)cc(C#N)c32)c2c1[C@H](O)C(F)(F)C2` [Example 217, (5R,6S,8R)-8-[(1S)-2,2-difluoro-1-hydroxy-7-(1-methyl-1H-pyrazol-5-yl)-2,3-dihydro-1H-inden-4-yl]-3,5,6-trifluoro-5,6,7,8-tetrahydronaphthalene-1-carbonitrile], the IC50 is reported as under 100 nM.
In the case of `N#Cc1cc(F)cc2c1[C@@H](c1ccc(-c3nccnc3N)c3c1CC(F)(F)[C@H]3O)CC[C@@H]2F` [Example 186, (5S,8R)-8-[(1S)-7-(3-aminopyrazin-2-yl)-2,2-difluoro-1-hydroxy-1,3-dihydroinden-4-yl]-3,5-difluoro-5,6,7,8-tetrahydronaphthalene-1-carbonitrile], the IC50 is reported as under 100 nM.
For `N#Cc1cc(F)cc2c1[C@@H](c1ccc(-c3c[nH]c4ncccc34)c3c1CC(F)(F)[C@H]3O)CC[C@@H]2F` [Example 243, (5S,8R)-8-[(1S)-2,2-difluoro-1-hydroxy-7-{1H-pyrrolo[2,3-b]pyridin-3-yl}-2,3-dihydro-1H-inden-4-yl]-3,5-difluoro-5,6,7,8-tetrahydronaphthalene-1-carbonitrile], the IC50 was 100 to 1000 nM.
In the case of `N#Cc1cc(F)cc2c1[C@@H](c1ccc(-c3cncnc3N)c3c1CC(F)(F)[C@H]3O)CC[C@@H]2F` [Example 177, (5S,8R)-8-[(1S)-7-(4-aminopyrimidin-5-yl)-2,2-difluoro-1-hydroxy-1,3-dihydroinden-4-yl]-3,5-difluoro-5,6,7,8-tetrahydronaphthalene-1-carbonitrile], the IC50 is reported as under 100 nM.
In the case of `N#Cc1cc(F)cc2c1[C@@H](c1ccc(-c3ccccc3CN)c3c1CC(F)(F)[C@H]3O)CC[C@@H]2F` [Example 165, (5S,8R)-8-[(1S)-7-[2-(aminomethyl)phenyl]-2,2-difluoro-1-hydroxy-2,3-dihydro-1H-inden-4-yl]-3,5-difluoro-5,6,7,8-tetrahydronaphthalene-1-carbonitrile], the IC50 is reported as 100 to 1000 nM.
`Cc1ncccc1-c1ncc([C@H]2CC[C@H](F)c3cc(F)cc(C#N)c32)c2c1[C@H](O)[C@H](F)C2` [Example 227, (5S,8S)-3,5-difluoro-8-[(6R,7S)-6-fluoro-7-hydroxy-1-(2-methylpyridin-3-yl)-5H16H17H-cyclopenta[c]pyridin-4-yl]-5,6,7,8-tetrahydronaphthalene-1-carbonitrile] was tested, and the IC50 was 100 to 1000 nM.
In the case of `N#Cc1cc(F)cc2c1[C@@H](c1ccc(-c3cncs3)c3c1CC(F)(F)[C@H]3O)CC[C@@H]2F` [Example 158, (5S,8R)-8-[(1S)-2,2-difluoro-1-hydroxy-7-(1,3-thiazol-5-yl)-1,3-dihydroinden-4-yl]-3,5-difluoro-5,6,7,8-tetrahydronaphthalene-1-carbonitrile], the IC50 is reported as under 100 nM.
In the case of `Cn1cc(-c2ccc([C@H]3CC[C@H](F)c4cc(F)cc(C#N)c43)c3c2[C@H](O)C(F)(F)C3)cn1` [Example 150, (5S,8R)-8-[(1S)-2,2-difluoro-1-hydroxy-7-(1-methylpyrazol-4-yl)-1,3-dihydroinden-4-yl]-3,5-difluoro-5,6,7,8-tetrahydronaphthalene-1-carbonitrile], the IC50 is reported as 100 to 1000 nM.
For `Cc1nc(C#N)ncc1-c1ccc([C@H]2C[C@H](F)[C@H](F)c3cc(F)cc(C#N)c32)c2c1[C@H](O)C(F)(F)C2` [Example 220, 5-[(3S)-7-[(1R,3S,4R)-8-cyano-3,4,6-trifluoro-1,2,3,4-tetrahydronaphthalen-1-yl]-2,2-difluoro-3-hydroxy-2,3-dihydro-1H-inden-4-yl]-4-methylpyrimidine-2-carbonitrile], the IC50 was under 100 nM.
`Cn1c(-c2ccc([C@H]3CC[C@H](F)c4cc(F)cc(C#N)c43)c3c2[C@H](O)C(F)(F)C3)cccc1=O` [Example 171, (5S,8R)-8-[(1S)-2,2-difluoro-1-hydroxy-7-(1-methyl-6-oxopyridin-2-yl)-1,3-dihydroinden-4-yl]-3,5-difluoro-5,6,7,8-tetrahydronaphthalene-1-carbonitrile] gave an IC50 of under 100 nM.
Molecule `Cn1nncc1-c1ccc([C@H]2CC[C@H](F)c3cc(F)cc(C#N)c32)c2c1[C@H](O)[C@H](F)C2` [Example 175, (5S,8R)-3,5-difluoro-8-[(1S,2R)-2-fluoro-1-hydroxy-7-(3-methyltriazol-4-yl)-2,3-dihydro-1H-inden-4-yl]-5,6,7,8-tetrahydronaphthalene-1-carbonitrile] has an IC50 of under 100 nM.
Molecule `CS(=O)(=O)c1ccc([C@H]2CC[C@H](F)c3cc(F)cc(C#N)c32)c2c1[C@H](O)[C@](F)(C#N)C2` [Example 248, (5S,8R)-8-[(1S,2R)-2-cyano-2-fluoro-1-hydroxy-7-methylsulfonyl-1,3-dihydroinden-4-yl]-3,5-difluoro-5,6,7,8-tetrahydronaphthalene-1-carbonitrile] has an IC50 of 100 to 1000 nM.
Molecule `N#Cc1cc(F)cc2c1[C@@H](c1ccc(-c3cnc(C(N)=O)s3)c3c1CC(F)(F)[C@H]3O)CC[C@@H]2F` [Example 180, 5-[(3S)-7-[(1R,4S)-8-cyano-4,6-difluoro-1,2,3,4-tetrahydronaphthalen-1-yl]-2,2-difluoro-3-hydroxy-1,3-dihydroinden-4-yl]-1,3-thiazole-2-carboxamide] has an IC50 of under 100 nM.
Molecule `Cc1ncc(-c2ccc([C@H]3C[C@H](F)[C@H](F)c4cc(F)cc(C#N)c43)c3c2[C@H](O)C(F)(F)C3)c(N)n1` [Example 221, (5R,6S,8R)-8-[(1S)-7-(4-amino-2-methylpyrimidin-5-yl)-2,2-difluoro-1-hydroxy-2,3-dihydro-1H-inden-4-yl]-3,5,6-trifluoro-5,6,7,8-tetrahydronaphthalene-1-carbonitrile] has an IC50 of under 100 nM.
Molecule `N#Cc1cc(F)cc2c1[C@@H](c1ccc(-c3cnc4cnccn34)c3c1CC(F)(F)[C@H]3O)CC[C@@H]2F` [Example 234, (5S,8R)-8-[(1S)-2,2-difluoro-1-hydroxy-7-imidazo[1,2-a]pyrazin-3-yl-1,3-dihydroinden-4-yl]-3,5-difluoro-5,6,7,8-tetrahydronaphthalene-1-carbonitrile] has an IC50 of under 100 nM.
Work on `N#Cc1cc(F)cc2c1[C@@H](c1ccc(-c3cccc4scnc34)c3c1CC(F)(F)[C@H]3O)CC[C@@H]2F` [Example 190, (5S,8R)-8-[(1S)-7-(1,3-benzothiazol-4-yl)-2,2-difluoro-1-hydroxy-1,3-dihydroinden-4-yl]-3,5-difluoro-5,6,7,8-tetrahydronaphthalene-1-carbonitrile] yielded an IC50 of 100 to 1000 nM.
Molecule `N#Cc1cc(F)cc2c1[C@@H](c1ccc(-c3c(N)cccc3F)c3c1CC(F)(F)[C@H]3O)CC[C@@H]2F` [Example 196, (5S,8R)-8-[(1S)-7-(2-amino-6-fluorophenyl)-2,2-difluoro-1-hydroxy-1,3-dihydroinden-4-yl]-3,5-difluoro-5,6,7,8-tetrahydronaphthalene-1-carbonitrile] has an IC50 of under 100 nM.
`Cc1nc(N)ccc1-c1c(F)cc([C@H]2CC[C@H](F)c3cc(F)cc(C#N)c32)c2c1[C@H](O)C(F)(F)C2` [Example 203, (5S,8R)-8-[(1S)-7-(6-amino-2-methylpyridin-3-yl)-2,2,6-trifluoro-1-hydroxy-1,3-dihydroinden-4-yl]-3,5-difluoro-5,6,7,8-tetrahydronaphthalene-1-carbonitrile] gave an IC50 of under 100 nM.
With `Cc1cccnc1-c1ccc([C@H]2CC[C@H](F)c3cc(F)cc(C#N)c32)c2c1[C@H](O)C(F)(F)C2` [Example 244, (5S,8R)-8-[(1S)-2,2-difluoro-1-hydroxy-7-(3-methylpyridin-2-yl)-2,3-dihydro-1H-inden-4-yl]-3,5-difluoro-5,6,7,8-tetrahydronaphthalene-1-carbonitrile] the IC50 was under 100 nM.
`N#Cc1cc(F)cc2c1[C@@H](c1ccc(Cl)c3c1C[C@@H](F)[C@H]3O)CC[C@@H]2F` [Example 222, (5S,8R)-8-[(1S,2R)-7-chloro-2-fluoro-1-hydroxy-2,3-dihydro-1H-inden-4-yl]-3,5-difluoro-5,6,7,8-tetrahydronaphthalene-1-carbonitrile] gave an IC50 of under 100 nM.
For `Cn1cnc(-c2ccc([C@H]3CC[C@H](F)c4cc(F)cc(C#N)c43)c3c2[C@H](O)C(F)(F)C3)n1` [Example 182, (5S,8R)-8-[(1S)-2,2-difluoro-1-hydroxy-7-(1-methyl-1,2,4-triazol-3-yl)-1,3-dihydroinden-4-yl]-3,5-difluoro-5,6,7,8-tetrahydronaphthalene-1-carbonitrile], the IC50 was 100 to 1000 nM.
